Experimental data taken from ChEMBL document CHEMBL3091330, “Discovery of 3,4-Dihydropyrimidin-2(1H)-ones As a Novel Class of Potent and Selective A2B Adenosine Receptor Antagonists” (ACS Med Chem Lett, 2013).

How the values were obtained:
[1] = target: T1, Adenosine receptor A2b (Homo sapiens, UniProt P29275); assay: Displacement of [3H]DPCPX from human adenosine A2B receptor expressed in HEK293 cells after 30 mins by Scatchard plot analysis; assay type: cell-based
T1 sequence (P29275 whole entry): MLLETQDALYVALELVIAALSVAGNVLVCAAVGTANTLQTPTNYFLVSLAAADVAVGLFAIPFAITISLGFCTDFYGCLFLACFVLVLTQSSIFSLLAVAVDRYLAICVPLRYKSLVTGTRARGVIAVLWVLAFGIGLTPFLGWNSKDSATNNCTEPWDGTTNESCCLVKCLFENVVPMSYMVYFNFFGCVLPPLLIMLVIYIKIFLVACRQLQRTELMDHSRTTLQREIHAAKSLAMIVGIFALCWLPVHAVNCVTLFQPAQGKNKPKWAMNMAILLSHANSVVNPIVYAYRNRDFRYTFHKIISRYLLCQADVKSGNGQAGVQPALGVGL

[2] = target: T2, Adenosine receptor A3 (Homo sapiens) (UniProt P0DMS8); assay: Displacement of [3H]NECA from adenosine A3 receptor in human HeLa cells at 10 uM after 180 mins; assay type: cell-based
T2 sequence (whole entry): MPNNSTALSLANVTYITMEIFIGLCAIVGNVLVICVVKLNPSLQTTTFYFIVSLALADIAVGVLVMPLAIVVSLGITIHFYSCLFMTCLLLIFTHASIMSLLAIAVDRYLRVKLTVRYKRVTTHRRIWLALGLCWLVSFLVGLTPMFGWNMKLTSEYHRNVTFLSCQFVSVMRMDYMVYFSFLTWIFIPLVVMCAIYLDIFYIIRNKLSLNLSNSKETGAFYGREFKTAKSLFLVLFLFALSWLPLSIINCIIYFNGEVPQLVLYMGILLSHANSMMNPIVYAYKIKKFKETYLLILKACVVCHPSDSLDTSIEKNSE

[3] = target: T3, Adenosine receptor A1 (Homo sapiens) (UniProt P30542); assay: Displacement of [3H]DPCPX from human adenosine A1 receptor expressed in CHO cells at 10 uM after 60 mins; assay type: cell-based
T3 sequence (whole entry): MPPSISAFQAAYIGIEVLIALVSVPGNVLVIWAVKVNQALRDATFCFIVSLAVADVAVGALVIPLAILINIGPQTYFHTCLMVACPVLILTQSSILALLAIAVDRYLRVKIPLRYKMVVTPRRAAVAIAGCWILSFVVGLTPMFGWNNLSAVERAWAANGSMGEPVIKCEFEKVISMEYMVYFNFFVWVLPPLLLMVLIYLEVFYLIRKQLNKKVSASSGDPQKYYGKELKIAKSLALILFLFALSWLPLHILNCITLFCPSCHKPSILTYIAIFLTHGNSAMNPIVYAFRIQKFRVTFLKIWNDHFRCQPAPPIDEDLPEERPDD

[4] = target: T4, Adenosine receptor A2a (Homo sapiens, UniProt P29274); assay: Displacement of [3H]ZM241385 from adenosine A2A receptor in human HeLa cells at 10 uM after 30 mins; assay type: cell-based
T4 sequence (P29274 whole entry): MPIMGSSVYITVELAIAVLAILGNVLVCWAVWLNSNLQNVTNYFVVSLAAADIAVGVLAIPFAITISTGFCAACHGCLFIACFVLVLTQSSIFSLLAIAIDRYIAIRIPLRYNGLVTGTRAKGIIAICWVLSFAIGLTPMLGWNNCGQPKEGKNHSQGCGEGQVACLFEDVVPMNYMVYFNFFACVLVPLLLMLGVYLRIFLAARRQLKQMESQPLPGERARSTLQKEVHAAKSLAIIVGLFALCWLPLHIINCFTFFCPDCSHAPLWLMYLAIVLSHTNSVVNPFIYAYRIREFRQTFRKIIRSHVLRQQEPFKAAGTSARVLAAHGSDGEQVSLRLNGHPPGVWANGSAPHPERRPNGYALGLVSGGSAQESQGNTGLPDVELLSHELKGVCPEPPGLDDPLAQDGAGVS

[5] = target: T5, Adenosine receptor A2b (Homo sapiens) (UniProt P29275); assay: Displacement of [3H]DPCPX from human from adenosine A2B receptor in HEK293 cells at 10 uM after 30 mins by Scatchard plot analysis; assay type: cell-based
T5 sequence (whole entry): T1 sequence (P29275 whole entry)

[6] = target: T4, Adenosine receptor A2a; assay: Displacement of [3H]ZM241385 from adenosine A2A receptor in human HeLa cells after 30 mins; assay type: cell-based
[7] = target: Cytochrome P450 3A4 (Homo sapiens, UniProt P08684); assay: Inhibition of human recombinant CYP3A4 expressed in baculosomes at 100 fold Ki; assay type: ADME; settings: recombinant enzyme
Cytochrome P450 3A4, sequence (P08684 whole entry): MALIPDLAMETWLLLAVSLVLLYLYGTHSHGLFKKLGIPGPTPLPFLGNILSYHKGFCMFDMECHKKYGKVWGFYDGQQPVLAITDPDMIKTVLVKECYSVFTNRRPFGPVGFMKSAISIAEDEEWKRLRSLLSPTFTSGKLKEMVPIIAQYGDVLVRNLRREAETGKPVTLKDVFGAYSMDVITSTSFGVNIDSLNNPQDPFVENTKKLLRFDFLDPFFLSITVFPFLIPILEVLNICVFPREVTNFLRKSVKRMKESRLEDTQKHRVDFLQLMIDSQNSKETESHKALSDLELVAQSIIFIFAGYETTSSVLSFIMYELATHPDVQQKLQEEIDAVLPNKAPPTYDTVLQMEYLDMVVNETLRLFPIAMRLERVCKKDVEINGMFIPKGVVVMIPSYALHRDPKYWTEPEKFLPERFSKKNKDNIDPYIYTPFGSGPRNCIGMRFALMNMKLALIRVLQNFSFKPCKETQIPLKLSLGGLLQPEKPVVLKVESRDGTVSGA

[8] = target: T6, Adenosine receptor A1 (Homo sapiens, UniProt P30542); assay: Displacement of [3H]DPCPX from human adenosine A1 receptor expressed in CHO cells after 60 mins; assay type: cell-based
T6 sequence (P30542 whole entry): T3 sequence (whole entry)

[9] = target: T7, Cytochrome P450 1A2 (Homo sapiens, UniProt P05177); assay: Inhibition of human recombinant CYP1A2 expressed in baculosomes at 100 fold Ki; assay type: ADME; settings: recombinant enzyme
T7 sequence (P05177 whole entry): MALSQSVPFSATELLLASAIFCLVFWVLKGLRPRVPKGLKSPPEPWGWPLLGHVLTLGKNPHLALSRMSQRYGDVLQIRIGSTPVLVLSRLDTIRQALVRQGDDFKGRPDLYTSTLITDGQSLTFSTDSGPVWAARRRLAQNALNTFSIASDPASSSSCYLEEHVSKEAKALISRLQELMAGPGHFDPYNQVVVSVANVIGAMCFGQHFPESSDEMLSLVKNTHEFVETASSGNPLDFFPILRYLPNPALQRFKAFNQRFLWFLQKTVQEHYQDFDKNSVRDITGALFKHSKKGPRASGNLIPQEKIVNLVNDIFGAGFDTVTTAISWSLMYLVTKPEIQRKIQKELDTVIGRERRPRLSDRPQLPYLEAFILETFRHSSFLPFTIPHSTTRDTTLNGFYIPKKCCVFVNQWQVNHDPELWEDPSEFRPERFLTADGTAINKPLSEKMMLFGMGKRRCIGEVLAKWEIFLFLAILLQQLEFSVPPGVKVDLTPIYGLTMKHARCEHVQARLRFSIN

[10] = target: T8, Adenosine receptor A3 (Homo sapiens, UniProt P0DMS8); assay: Displacement of [3H]NECA from adenosine A3 receptor in human HeLa cells after 180 mins; assay type: cell-based
T8 sequence (P0DMS8 whole entry): T2 sequence (whole entry)

[11] = target: T5, Adenosine receptor A2b (Homo sapiens); assay: Antagonist activity at human adenosine A2B receptor expressed in HEK293 cells assessed as inhibition of NECA-stimulated cAMP accumulation incubated for 15 mins prior to NECA-challenge measured after 15 mins by spectrophotometry; assay type: functional, cell-based

Row | Compound | Ki [1] | inhibition [2] | inhibition [3] | inhibition [4] | inhibition [5] | Ki [6] | inhibition (INH) [7] | Ki [8] | inhibition (INH) [9] | Ki [10] | Kb [11]
1 | CCOC(=O)C1=C(C)N(C)C(=O)NC1c1ccsc1 (racemic) | 2970 nM | 3% | 30% | 24% | – | – | – | – | – | – | –
2 | CC1=C(C(=O)OC(C)C)C(c2cccs2)NC(=O)N1 (racemic) | – | 14% | 37% | 19% | 44% | – | – | – | – | – | –
3 | CC1=C(C(=O)OC(C)C)C(c2ccco2)NC(=O)N1C (racemic) | 1150 nM | 18% | 28% | 31% | – | – | – | – | – | – | –
4 | CC1=C(C(=O)OC(C)(C)C)C(c2ccco2)NC(=O)N1 (racemic) | – | 7% | 4% | 7% | 44% | – | – | – | – | – | –
5 | CCOC(=O)C1=C(CC)NC(=O)NC1c1ccco1 (racemic) | 715 nM | 3% | 29% | 41% | – | – | – | – | – | – | –
6 | CCOC(=O)C1=C(C)N(C)C(=O)NC1c1ccco1 (racemic) | 6540 nM | 25% | 17% | 5% | – | – | – | – | – | – | –
7 | CCOC(=O)C1=C(C)N(C)C(=O)NC1c1cccs1 (racemic) | – | 6% | 2% | 3% | 11% | – | – | – | – | – | –
8 | CCOC(=O)C1=C(C(F)(F)F)NC(=O)NC1c1ccco1 (racemic) | – | 2% | 15% | 32% | 2% | – | – | – | – | – | –
9 | CC(=O)C1=C(C)NC(=O)NC1c1ccco1 (racemic) | – | 14% | 30% | 21% | 38% | – | – | – | – | – | –
10 | CCOC(=O)C1=C(C)N=C(S)NC1c1ccco1 (racemic) | 608 nM | 5% | 1% | 32% | – | – | – | – | – | – | –
11 | CCOC(=O)C1=C(C)NC(=O)NC1c1ccoc1 (racemic) | 39.6 nM | 1% | 21% | 24% | – | – | – | – | – | – | –
12 | CCOC(=O)C1=C(C)N=C(S)NC1c1ccsc1 (racemic) | 1100 nM | 2% | 23% | 28% | – | – | – | – | – | – | –
13 | CCCC1=C(C(=O)OCC)C(c2ccco2)NC(=O)N1 (racemic) | 256 nM | 19% | 50% | – | – | 602 nM | – | – | – | – | –
14 | CCOC(=O)C1=C(C)NC(=S)NC1c1ccoc1 (racemic) | 43.1 nM | 15% | 18% | 25% | – | – | – | – | – | – | –
15 | CC1=C(C(=O)OC(C)C)C(c2ccco2)NC(=S)N1 (racemic) | 10.2 nM | 4% | 15% | 18% | – | > 10000 nM | Not Active | > 10000 nM | Not Active | > 10000 nM | 4.7 nM
16 | CC1=C(C(=O)OC(C)C)C(c2ccsc2)NC(=O)N1C (racemic) | 1810 nM | 14% | 33% | 20% | – | – | – | – | – | – | –
17 | CCOC(=O)C1=C(C)NC(=O)NC1c1ccco1 (racemic) | 586 nM | 2% | 15% | 31% | – | – | – | – | – | – | –
18 | CC1=C(C(=O)OC(C)C)C(c2ccoc2)NC(=O)N1 (racemic) | 1490 nM | 3% | 25% | 26% | – | – | – | – | – | – | –
